In patent publication US8946197B2, “Transglutaminase TG2 inhibitors, pharmaceutical compositions, and methods of use thereof” (CHDI Foundation, Inc., priority 2009, dated 2015):
Values joined by “and” are separate entries in the source; they are usually repeats but may differ in a detail not shown here. Equal values may be shown once.

Target: T1, human TG2 (Homo sapiens, UniProt P21980)
T1 sequence (P21980 1-687): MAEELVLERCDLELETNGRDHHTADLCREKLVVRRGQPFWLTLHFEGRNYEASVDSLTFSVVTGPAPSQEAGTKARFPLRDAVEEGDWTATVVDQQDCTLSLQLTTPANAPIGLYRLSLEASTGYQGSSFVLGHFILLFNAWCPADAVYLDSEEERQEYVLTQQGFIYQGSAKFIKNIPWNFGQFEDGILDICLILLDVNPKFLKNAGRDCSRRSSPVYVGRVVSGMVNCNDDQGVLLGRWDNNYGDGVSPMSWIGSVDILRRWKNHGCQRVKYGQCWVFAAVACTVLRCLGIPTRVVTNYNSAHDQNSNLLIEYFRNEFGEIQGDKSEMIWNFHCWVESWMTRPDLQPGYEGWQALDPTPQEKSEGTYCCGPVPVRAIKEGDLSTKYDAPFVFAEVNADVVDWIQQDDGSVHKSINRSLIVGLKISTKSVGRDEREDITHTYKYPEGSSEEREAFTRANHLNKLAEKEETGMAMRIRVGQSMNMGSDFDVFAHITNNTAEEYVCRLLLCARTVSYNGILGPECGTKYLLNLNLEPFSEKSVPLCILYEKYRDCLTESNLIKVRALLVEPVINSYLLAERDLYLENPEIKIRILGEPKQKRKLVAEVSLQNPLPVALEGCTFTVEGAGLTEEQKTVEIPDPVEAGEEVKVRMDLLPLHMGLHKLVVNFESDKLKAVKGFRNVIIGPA
Test: fluorescent screening assay for human TG2
Assay type: biochemical
Settings: 20 nM TG2, 8 μM N,N-dimethylated Casein, 16 μM KxD, pH 7.4, 37° C
Procedure: (§1) The fluorescent screening assay for human TG2 was performed as described herein: Assay conditions were 20 nM TG2, 8 μM N,N-dimethylated Casein (NMC) and 16 μM K×D (used for all transglutaminase assays) in 25 mM Hepes, pH 7.4, 250 mM NaCl, 2 mM MgCl2, 0.5 mM CaCl2, 0.2 mM DTT, 0.05% Pluronic F-127 at 37° C. A time point was taken with a microplate reader (Safire or Ultra, Tecan; ex: 350 nm, em: 535 nm) every 3 minutes for up to 2 hours and the initial linear reaction progress was used to determine the reaction velocity as a measure for enzyme activity. Assay conditions were identical for human TG6 and similar for human TG1 and mouse TG2 apart from enzyme concentration (mTG2 at 5 nM; TG1 at 10 nM) and CaCl2 concentration (0.2 mM for mTG2; 0.05 mM for TG1). Factor XIIIa was activated using 0.1 μg/μl thrombin (Sigma) in 35 mM Tris pH 8.0 for 20 min at 30° C. and the transamidation reaction was performed with 20 nM Factor XIIIa in 50 mM Tris pH 8.0, 1.25 mM CaCl2, 0.05% Pluronic, 0.2 mM DTT. TG3 was activated with 0.02 μg/μl thrombin under the same conditions as Factor XIIIa and assay conditions were 10 nM TG3 in 50 mM Hepes, pH 8, 20 mM CaCl2, 0.2 mM DTT, 0.05% Pluronic F-127.
as §1, with “A” for “The”

| IC50 | SMILES |
| --- | --- |
| 100 to 1000 nM and < 100 nM | C=CC(=O)Nc1ccc(S(=O)(=O)N2CCN(C(=O)Oc3ccccc3)CC2)cc1 [4-(4-Acryloylamino-benzenesulfonyl)-piperazine-1-carboxylic acid phenyl ester] |
| 1000 to 25000 nM | CC#CC(=O)Nc1ccc(S(=O)(=O)N2CCN(C(=O)OC(C)(C)C)CC2)cc1 [4-[4-(1-Oxo-but-2-ynylamino)-benzenesulfonyl]-piperazine-1-carboxylic acid tert-butyl ester] |
| 1000 to 25000 nM | C=C(F)C(=O)Nc1ccc(S(=O)(=O)N2CCN(C(=O)OC(C)(C)C)CC2)cc1 [4-[4-(2-Fluoro-acryloylamino)-benzenesulfonyl]-piperazine-1-carboxylic acid tert-butyl ester] |
| 1000 to 25000 nM | C=CC(=O)N(C)c1ccc(S(=O)(=O)N2CCN(C(=O)OC(C)(C)C)CC2)cc1 [4-[4-(Acryloyl-methyl-amino)-benzenesulfonyl]-piperazine-1-carboxylic acid tert-butyl ester] |
| 1000 to 25000 nM | CC(C)(C)OC(=O)N1CCN(S(=O)(=O)c2ccc(NC(=O)/C=C/Cl)cc2)CC1 [(E)-tert-butyl 4-(4-(3-chloroacrylamido)phenylsulfonyl)piperazine-1-carboxylate] |
| 1000 to 25000 nM | C/C=C/C(=O)Nc1ccc(S(=O)(=O)N2CCN(C(=O)OC(C)(C)C)CC2)cc1 [(E)-tert-butyl 4-(4-but-2-enamidophenylsulfonyl)piperazine-1-carboxylate] |
| 100 to 1000 nM | CC(C)(C)OC(=O)N1CCN(S(=O)(=O)c2ccc(NC(=O)/C=C\Cl)cc2)CC1 [(Z)-tert-butyl 4-(4-(3-chloroacrylamido)phenylsulfonyl)piperazine-1-carboxylate] |
| 1000 to 25000 nM | C/C=C\C(=O)Nc1ccc(S(=O)(=O)N2CCN(C(=O)OC(C)(C)C)CC2)cc1 [(Z)-tert-butyl 4-(4-but-2-enamidophenylsulfonyl)piperazine-1-carboxylate] |
| 100 to 1000 nM and < 100 nM | C=CC(=O)Nc1ccc(S(=O)(=O)N2CCC(N(C)C(=O)C34CC5CC(CC(C5)C3)C4)CC2)cc1 [Adamantane-1-carboxylic acid [1-(4-acryloylamino-benzenesulfonyl)-piperidin-4-yl]-methyl-amide] |
| 100 to 1000 nM and < 100 nM | C=CC(=O)Nc1ccc(S(=O)(=O)N2CCN(C(=O)Cc3cccc(Oc4ccccc4)c3)CC2)cc1 [N-(4-{4-[2-(3-Phenoxy-phenyl)-acetyl]-piperazine-1-sulfonyl}-phenyl)-acrylamide] |
| 100 to 1000 nM and < 100 nM | C=CC(=O)Nc1ccc(S(=O)(=O)N2CCN(C(=O)Cc3ccc(Oc4ccccc4)cc3)CC2)cc1 [N-(4-{4-[2-(4-Phenoxy-phenyl)-acetyl]-piperazine-1-sulfonyl}-phenyl)-acrylamide] |
| 1000 to 25000 nM | C=CC(=O)Nc1ccc(S(=O)(=O)N(C)Cc2ccc(CN3CCN(C)CC3)cc2)cc1 [N-(4-{Methyl-[4-(4-methyl-piperazin-1-ylmethyl)-benzyl]-sulfamoyl}-phenyl)-acrylamide] |
| 1000 to 25000 nM | C=CC(=O)Nc1cccc(S(=O)(=O)N2CCN(Cc3ccccc3)CC2)c1 [N-[3-(4-Benzyl-piperazine-1-sulfonyl)-phenyl]-acrylamide] |
| 1000 to 25000 nM | C=CC(=O)Nc1cccc(S(=O)(=O)N2CCN(CCc3ccccc3)CC2)c1 [N-[3-(4-Phenethyl-piperazine-1-sulfonyl)-phenyl]-acrylamide] |
| 1000 to 25000 nM | C=CC(=O)Nc1cccc(S(=O)(=O)N2CCN(c3ccccc3)CC2)c1 [N-[3-(4-Phenyl-piperazine-1-sulfonyl)-phenyl]-acrylamide] |
| 1000 to 25000 nM | C=CC(=O)Nc1cccc(S(=O)(=O)N2CCNCC2)c1 [N-[3-(piperazine-1-sulfonyl)-phenyl]-acrylamide] |
| 1000 to 25000 nM | C=CC(=O)Nc1ccc(S(=O)(=O)N2CCNCC2)c(OC)c1 [N-[3-Methoxy-4-(piperazine-1-sulfonyl)-phenyl]-acrylamide] |

| IC50 | SMILES |
| --- | --- |
| 1000 to 25000 nM | C=CC(=O)Nc1ccc(S(=O)(=O)N2CCNCC2)c(C)c1 [N-[3-Methyl-4-(piperazine-1-sulfonyl)-phenyl]-acrylamide] |
| 1000 to 25000 nM | C=CC(=O)Nc1ccc(S(=O)(=O)NC2CCCN(CC)C2)cc1 (stereo not shown) [N-[4-(1-Ethyl-piperidin-3-ylsulfamoyl)-phenyl]-acrylamide] |
| 1000 to 25000 nM | C=CC(=O)Nc1ccc(S(=O)(=O)NC(C)C(=O)N2CCCCC2)cc1 (stereo not shown) [N-[4-(1-Methyl-2-oxo-2-piperidin-1-yl-ethylsulfamoyl)-phenyl]-acrylamide] |
| < 100 nM and 100 to 1000 nM | C=CC(=O)Nc1ccc(S(=O)(=O)N2CCN(c3cnccn3)CC2)cc1 [N-[4-(2,3,5,6-Tetrahydro-[1,2′]bipyrazinyl-4-sulfonyl)-phenyl]-acrylamide] |
| 1000 to 25000 nM | C=CC(=O)Nc1ccc(S(=O)(=O)N2CCN(C34CC5CC(CC(C5)C3)C4)CC2)cc1 [N-[4-(4-Adamantan-1-yl-piperazine-1-sulfonyl)-phenyl]-acrylamide] |
| 1000 to 25000 nM | C=CC(=O)Nc1ccc(S(=O)(=O)N2CCC(N)CC2)cc1 [N-[4-(4-Amino-piperidine-1-sulfonyl)-phenyl]-acrylamide] |
| < 100 nM and 100 to 1000 nM | C=CC(=O)Nc1ccc(S(=O)(=O)N2CCN(c3nc4ccccc4o3)CC2)cc1 [N-[4-(4-Benzooxazol-2-yl-piperazine-1-sulfonyl)-phenyl]-acrylamide] |
| < 100 nM and 100 to 1000 nM | C=CC(=O)Nc1ccc(S(=O)(=O)N2CCN(c3nc4ccccc4s3)CC2)cc1 [N-[4-(4-Benzothiazol-2-yl-piperazine-1-sulfonyl)-phenyl]-acrylamide] |
| 1000 to 25000 nM | C=CC(=O)Nc1ccc(S(=O)(=O)N2CCN(c3cccc(-c4ccccc4)c3)CC2)cc1 [N-[4-(4-Biphenyl-3-yl-piperazine-1-sulfonyl)-phenyl]-acrylamide] |
| 1000 to 25000 nM | C=CC(=O)Nc1ccc(S(=O)(=O)N2CCN(Cc3ccc(-c4ccccc4)cc3)CC2)cc1 [N-[4-(4-Biphenyl-4-ylmethyl-piperazine-1-sulfonyl)-phenyl]-acrylamide] |
| 100 to 1000 nM and < 100 nM | C=CC(=O)Nc1ccc(S(=O)(=O)N2CCN(C(=O)C3CCCC3)CC2)cc1 [N-[4-(4-Cyclopentanecarbonyl-piperazine-1-sulfonyl)-phenyl]-acrylamide] |
| 100 to 1000 nM and < 100 nM | C=CC(=O)Nc1ccc(S(=O)(=O)N2CCN(C(=O)C3CC3)CC2)cc1 [N-[4-(4-Cyclopropanecarbonyl-piperazine-1-sulfonyl)-phenyl]-acrylamide] |
| 1000 to 25000 nM | C=CC(=O)Nc1ccc(S(=O)(=O)N2CCC(c3ccco3)=Nc3ccccc32)cc1 [N-[4-(4-Furan-2-yl-2,3-dihydro-benzo[β][1,4]diazepine-1-sulfonyl)-phenyl]-acrylamide] |
| < 100 nM and 100 to 1000 nM | C=CC(=O)Nc1ccc(S(=O)(=O)N2CCN(c3nccc4occc34)CC2)cc1 [N-[4-(4-Furo[3,2-c]pyridin-4-yl-piperazine-1-sulfonyl)-phenyl]-acrylamide] |
| < 100 nM and 100 to 1000 nM | C=CC(=O)Nc1ccc(S(=O)(=O)N2CCN(c3nccc4ccccc34)CC2)cc1 [N-[4-(4-Isoquinolin-1-yl-piperazine-1-sulfonyl)-phenyl]-acrylamide] |
| 1000 to 25000 nM | C=CC(=O)Nc1ccc(S(=O)(=O)N2CCN(c3ccc4ccccc4c3)CC2)cc1 [N-[4-(4-Naphthalen-2-yl-piperazine-1-sulfonyl)-phenyl]-acrylamide] |
| 100 to 1000 nM and < 100 nM | C=CC(=O)Nc1ccc(S(=O)(=O)N2CCN(c3ccccn3)CC2)cc1 [N-[4-(4-Pyridin-2-yl-piperazine-1-sulfonyl)-phenyl]-acrylamide] |
